Experiment [1] addresses human butyrylcholinesterase (hBuChE) (Homo sapiens, UniProt P06276). Briefly: biochemical.
Experiment [2] has as its target T1, human liver carboxylesterase (hCE1) (Homo sapiens, UniProt P23141).
T1 sequence (P23141 18-567): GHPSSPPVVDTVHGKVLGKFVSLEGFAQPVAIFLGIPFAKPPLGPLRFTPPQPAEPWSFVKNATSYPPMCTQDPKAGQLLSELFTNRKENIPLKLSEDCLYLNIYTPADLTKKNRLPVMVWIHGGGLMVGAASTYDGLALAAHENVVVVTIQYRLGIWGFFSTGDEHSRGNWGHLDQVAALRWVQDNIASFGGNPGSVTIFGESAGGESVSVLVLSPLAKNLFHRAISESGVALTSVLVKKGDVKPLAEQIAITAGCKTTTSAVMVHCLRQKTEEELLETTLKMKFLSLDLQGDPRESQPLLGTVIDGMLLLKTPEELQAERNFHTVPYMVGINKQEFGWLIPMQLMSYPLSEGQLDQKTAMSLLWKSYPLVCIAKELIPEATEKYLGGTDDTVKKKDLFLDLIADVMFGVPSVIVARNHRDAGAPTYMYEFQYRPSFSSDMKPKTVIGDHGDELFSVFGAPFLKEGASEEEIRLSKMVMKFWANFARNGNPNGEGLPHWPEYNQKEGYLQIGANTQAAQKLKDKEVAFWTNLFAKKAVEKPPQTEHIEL
Briefly: biochemical. The experiment is classed as biochemical. The following applies: o-NPA as substrate.

Experiment [3] deals with T2, human acetylcholinesterase (hAcChE) (Homo sapiens, UniProt P22303).
T2 construct: purchased Sigma Biochemicals (St. Louis, Mo.)
T2 sequence (P22303 32-614): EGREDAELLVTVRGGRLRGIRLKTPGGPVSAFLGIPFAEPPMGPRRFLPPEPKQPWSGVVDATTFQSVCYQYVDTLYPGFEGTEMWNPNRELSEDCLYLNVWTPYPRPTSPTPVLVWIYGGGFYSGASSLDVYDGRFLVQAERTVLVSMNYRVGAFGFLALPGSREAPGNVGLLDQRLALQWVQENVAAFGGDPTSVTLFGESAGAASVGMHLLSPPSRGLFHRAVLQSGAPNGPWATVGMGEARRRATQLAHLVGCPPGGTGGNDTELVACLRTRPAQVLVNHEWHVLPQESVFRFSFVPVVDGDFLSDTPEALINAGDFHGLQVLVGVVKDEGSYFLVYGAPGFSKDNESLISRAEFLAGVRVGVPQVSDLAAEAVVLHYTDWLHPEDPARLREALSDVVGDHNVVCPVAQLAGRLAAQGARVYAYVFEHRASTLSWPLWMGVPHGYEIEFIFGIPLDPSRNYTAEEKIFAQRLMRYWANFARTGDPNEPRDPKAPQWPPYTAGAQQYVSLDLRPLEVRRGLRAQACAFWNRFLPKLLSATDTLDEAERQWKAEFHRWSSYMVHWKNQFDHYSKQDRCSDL
Briefly: biochemical. The experiment is classed as biochemical. On the procedure: Data was transferred to GraphPad Prism software, and Ki values were calculated as described in the Example above.

Experiment [4] deals with T3, rabbit liver carboxylesterase (rCE) (Oryctolagus cuniculus, UniProt P12337).
T3 sequence (P12337 19-565): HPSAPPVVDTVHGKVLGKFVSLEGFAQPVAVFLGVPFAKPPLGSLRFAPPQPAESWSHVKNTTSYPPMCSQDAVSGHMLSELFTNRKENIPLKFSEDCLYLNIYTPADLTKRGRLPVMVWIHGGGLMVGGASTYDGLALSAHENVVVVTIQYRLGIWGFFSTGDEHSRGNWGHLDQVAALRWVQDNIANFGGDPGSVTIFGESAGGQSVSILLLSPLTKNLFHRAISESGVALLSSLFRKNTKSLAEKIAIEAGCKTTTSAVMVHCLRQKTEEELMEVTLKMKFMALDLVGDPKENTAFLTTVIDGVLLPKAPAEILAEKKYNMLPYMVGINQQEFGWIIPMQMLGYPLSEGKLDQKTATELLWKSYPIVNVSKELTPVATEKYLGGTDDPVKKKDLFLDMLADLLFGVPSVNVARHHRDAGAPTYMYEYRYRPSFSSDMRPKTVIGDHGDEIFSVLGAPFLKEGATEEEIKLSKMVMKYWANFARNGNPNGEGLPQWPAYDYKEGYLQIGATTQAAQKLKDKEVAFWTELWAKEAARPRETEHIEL
The experiment is described as follows: biochemical. In kind it is biochemical. The settings on record: o-NPA as substrate; Table 6; read-out: rCE Ki ± SE.

The next experiment relates to carboxylesterases. Briefly: General carboxylesterase inhibition. In kind it is biochemical. The protocol: Carboxylesterase (CE) inhibition was determined by a spectroscopic assay using o-nitrophenyl acetate (o-NPA) as a substrate. Recombinant CEs produced from expression in Spodoptera frugiperda Sf9 insect cells via baculovirus were purified from serum-free culture media for the enzyme inhibition studies. Enzymes were incubated in 200 μl of 50 mM Hepes (pH 7.4) containing 3 mM o-NPA. Conversion of the o-NPA to nitrophenol was monitored by measuring the change in the absorbance at 420 nm. Absorbance readings were taken every 15 seconds for 2 minutes, and data transferred to a computer data spreadsheet. […] The final DMSO concentration was always 1% or less. […] The above procedure was then repeated using the same assay, with inhibitor concentrations ranging from 1 nM to 100 μM. Results were then transferred to Prism software (GraphPad Software, Inc., San Diego, Calif.) and Ki values determined using sigmoidal curve fits of the data. Routinely, all analyses were performed in duplicate, and Ki values determined using at least 8 inhibitor concentrations.

Experiment [5] concerns the target T4, human intestinal carboxylesterase in U373MGhiCE cells (Homo sapiens, UniProt O00748).
T4 construct: expressed in transfected cells; host or cells: U373MG human glioma cells (U373MGhiCE)
T4 sequence (O00748 27-559): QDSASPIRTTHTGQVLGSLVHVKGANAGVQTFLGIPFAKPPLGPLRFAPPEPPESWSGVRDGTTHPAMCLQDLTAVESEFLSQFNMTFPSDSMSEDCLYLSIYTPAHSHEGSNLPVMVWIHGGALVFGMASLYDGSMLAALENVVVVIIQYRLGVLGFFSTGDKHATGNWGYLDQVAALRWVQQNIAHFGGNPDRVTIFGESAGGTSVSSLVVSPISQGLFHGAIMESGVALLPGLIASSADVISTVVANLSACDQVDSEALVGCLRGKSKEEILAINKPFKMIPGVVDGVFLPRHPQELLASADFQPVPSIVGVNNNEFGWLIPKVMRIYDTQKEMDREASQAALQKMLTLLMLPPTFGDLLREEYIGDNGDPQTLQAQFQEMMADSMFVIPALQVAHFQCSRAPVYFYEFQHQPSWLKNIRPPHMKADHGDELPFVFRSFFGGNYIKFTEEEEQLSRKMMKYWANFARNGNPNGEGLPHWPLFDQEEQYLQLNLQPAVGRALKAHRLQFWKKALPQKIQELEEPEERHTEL
Briefly: Inhibition of intracellular carboxylesterase in U373MGhiCE cells. In kind it is cell-based. The protocol:
To monitor the ability of the compounds to cross the cell membrane and inhibit carboxylesterase activity intracellularly, an assay using human tumor cells expressing hiCE was devised. U373MGhiCE (a human glioma cell line transfected with a plasmid expressing hiCE) were plated in T25 flasks and allowed to grow to confluency (approximately 2-5×10^5 cells). Inhibitors were then added at a final concentration of […], and incubation allowed to continue for 1 hour. At this time, the cells were washed extensively with 5 ml of complete media and 2×5 ml of Hanks balanced salt solution, and cell extracts were prepared. Carboxylesterase activity was then determined using o-NPA as a substrate.
Table 8 sets forth the level of intracellular enzyme inhibition following incubation of human glioblastoma tumor cells expressing human intestinal carboxylesterase with 10 μM of each compound identified in Table 3.

Experiment [6] deals with T5, human small intestine carboxylesterase (hiCE) (Homo sapiens, UniProt O00748).
T5 sequence (O00748 27-559): T4 sequence (O00748 27-559)
Briefly: biochemical. The settings on record: o-NPA as substrate; Table 5; read-out: Ki hiCE. In kind it is biochemical.

The mark [7] stands for this setting: butyrylthiocholine as substrate, Table 6, read-out: hBuChE Ki.
Where [8] appears, read: Table 6, read-out: hCE1 Ki ± SE.
[9] abbreviates: acetylthiocholine as substrate, Table 6, read-out: hAcChE Ki.
The mark [10] stands for this setting: acetylthiocholine substrate, Table 5, read-out: Ki hAcChE.

Structures are written as SMILES. Like-named read-outs stand apart in the source and are kept apart here.

These results are taken from patent publication US7973034B2, “Amide, aryl sulfonamide, aryl urea, and α,β-diketone derived carboxylesterase inhibitors, and their methods of use” (priority 2003, dated 2011).

Sequence of human butyrylcholinesterase (hBuChE) (P06276 29-602): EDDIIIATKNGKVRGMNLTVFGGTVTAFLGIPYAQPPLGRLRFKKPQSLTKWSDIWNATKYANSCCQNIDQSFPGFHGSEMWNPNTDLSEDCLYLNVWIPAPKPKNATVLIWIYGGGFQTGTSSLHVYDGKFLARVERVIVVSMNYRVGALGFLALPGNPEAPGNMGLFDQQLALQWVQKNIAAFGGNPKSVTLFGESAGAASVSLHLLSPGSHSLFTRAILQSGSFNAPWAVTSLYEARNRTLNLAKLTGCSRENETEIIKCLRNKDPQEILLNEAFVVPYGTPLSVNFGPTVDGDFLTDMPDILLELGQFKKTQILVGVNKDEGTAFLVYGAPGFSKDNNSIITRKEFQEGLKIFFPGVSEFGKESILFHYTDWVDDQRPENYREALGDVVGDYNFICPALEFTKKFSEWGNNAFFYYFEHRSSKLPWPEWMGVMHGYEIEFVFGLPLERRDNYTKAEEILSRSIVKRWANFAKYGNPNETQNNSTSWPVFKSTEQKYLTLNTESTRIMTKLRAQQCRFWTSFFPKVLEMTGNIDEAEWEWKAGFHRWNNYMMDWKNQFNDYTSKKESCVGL

Broadly, the Ki is a dissociation constant, usually derived from enzyme kinetics or from competition with a known ligand. As to `O=C(O)c1ccc(C(=O)C(=O)c2ccccc2)cc1` [Compound 1, 4-[oxo(phenyl)acetyl]benzoic acid], the Ki was greater than 100000 nM in experiment [1] (setting [7]), 524 ± 46 nM in experiment [2] (setting [8]), greater than 100000 nM in experiment [3] (setting [9]) and 64 ± 6.2 nM in experiment [4]. For the same molecule, the “found to be general carboxylesterase inhibitors” value with carboxylesterases is “general carboxylesterase inhibitors”.
`O=C(C(=O)c1ccc(CBr)cc1)c1ccccc1` [Compound 3]: the Ki in experiment [1] was greater than 100000 nM; in experiment [2] (setting [8]), 77.6 ± 5.5 nM; in experiment [4], 15 ± 1.6 nM. In the experiment with carboxylesterases, the “found to be general carboxylesterase inhibitors” value is reported as “general carboxylesterase inhibitors”.
Turning to `Cc1ccc(C(=O)C(=O)c2ccccc2)cc1C` [Compound 5, 1-(3,4-dimethylphenyl)-2-phenylethane-1,2-dione], the Ki is greater than 100000 nM in experiment [1], 99.1 ± 10 nM in experiment [2] (setting [8]), greater than 100000 nM in experiment [3] (setting [9]) and 108 ± 8.8 nM in experiment [4]. In addition, the “found to be general carboxylesterase inhibitors” value in the experiment with carboxylesterases is reported as “general carboxylesterase inhibitors”.
As for `COc1ccc(C(=O)C(=O)c2ccccc2)cc1` [Compound 6, 1-(4-methoxyphenyl)-2-2phenylethane-1,2-dione], the Ki in experiment [1] is greater than 100000 nM; in experiment [2] (setting [8]), 175 ± 8.5 nM; in experiment [3] (setting [9]), greater than 100000 nM; in experiment [4] it was 200 ± 60 nM. For the same molecule, in the experiment with carboxylesterases, the “found to be general carboxylesterase inhibitors” value is on record as “general carboxylesterase inhibitors”.
In the case of `Cc1ccc(C(=O)C(=O)c2ccccc2)cc1[N+](=O)[O-]` [Compound 7, 1-(4-methyl-3-nitrophenyl)-2-phenylethane-1,2-dione], the Ki is greater than 100000 nM in experiment [1], 295 ± 9.6 nM in experiment [2] (setting [8]), greater than 100000 nM in experiment [3] (setting [9]) and 11.9 ± 1.1 nM in experiment [4]. In the experiment on carboxylesterases, the “found to be general carboxylesterase inhibitors” value is “general carboxylesterase inhibitors”.
Regarding `O=C(C(=O)c1ccc([N+](=O)[O-])cc1)c1ccccc1` [Compound 14, 1-(4-nitrophenyl)-2-phenylethane-1,2-dione], the Ki in experiment [1] is greater than 100000 nM; in experiment [2] (setting [8]), 215 ± 24 nM; in experiment [3] (setting [9]), greater than 100000 nM; in experiment [4], 21.7 ± 2.5 nM. For the same molecule, the “found to be general carboxylesterase inhibitors” value in the experiment on carboxylesterases is “general carboxylesterase inhibitors”.
Consider `O=C(C(=O)c1ccc(F)cc1)c1ccc(F)cc1` [Compound 16, 1,2-bis(4-fluorophenyl)ethane-1,2-dione], for which the “found to be general carboxylesterase inhibitors” value with carboxylesterases was “general carboxylesterase inhibitors”.
In the case of `Cc1ccc(C(=O)C(=O)c2ccc(C)cc2)cc1` [Compound 17, 1,2-bis(4-methylphenyl)ethane-1,2-dione], the Ki was greater than 100000 nM in experiment [1] (setting [7]), 532 ± 35 nM in experiment [2] (setting [8]), greater than 100000 nM in experiment [3] (setting [9]) and 49.6 ± 6.8 nM in experiment [4]. Moreover, the “found to be general carboxylesterase inhibitors” value with carboxylesterases is “general carboxylesterase inhibitors”.
For `O=C(C(=O)c1cc(F)cc(F)c1)c1cc(F)cc(F)c1` [Compound 19, 1,2-bis(3,5-difluorophenyl)ethane-1,2-dione], the “found to be general carboxylesterase inhibitors” value with carboxylesterases is “general carboxylesterase inhibitors”.
Consider `O=C(C(=O)c1cc(F)c(F)c(F)c1)c1cc(F)c(F)c(F)c1` [Compound 20, 1,2-bis(3,4,5-trifluorophenyl)ethane-1,2-dione], for which the “found to be general carboxylesterase inhibitors” value with carboxylesterases was “general carboxylesterase inhibitors”.
Turning to `Cc1ccc(C(=O)C(=O)c2ccc(Cl)cc2)cc1` [Compound 22, 1-(4-chlorophenyl)-2-(4-methylphenyl)ethane-1,2-dione], the values for the Ki in experiment [1], in experiment [2] (setting [8]) and in experiment [4] were greater than 100000 nM, 160 ± 32 nM and 16.2 ± 1.7 nM, respectively. In addition, the “found to be general carboxylesterase inhibitors” value in the experiment on carboxylesterases was “general carboxylesterase inhibitors”.
Turning to `O=C(C(=O)c1cccs1)c1cccs1` [Compound 23, 1,2-dithien-2-yl-ethane-1,2-dione], the “found to be general carboxylesterase inhibitors” value in the experiment with carboxylesterases is recorded as “general carboxylesterase inhibitors”.
The term inhibition denotes the drop in the measured response relative to a control, in per cent. High values mean strong suppression, low ones little suppression. In the case of `COc1cc(OC)c(NC(=O)c2cc3ccccc3cc2O)cc1Cl` [Compound 42, N-(5-chloro-2,4-dimethoxyphenyl)-3-hydroxy-2-naphthamide], the inhibition at 10 µM in experiment [5] came out at 0%. Also, the Ki is greater than 100000 nM in experiment [2] (Table 5, read-out: Ki hCE1); greater than 100000 nM in experiment [3] (setting [10]); 159 nM in experiment [6].
`Cc1cccc(C)c1NC(=O)Nc1ccc([N+](=O)[O-])cc1` [Compound 54, N-(2,6-dimethylphenyl)-N′-(4-nitrophenyl)urea] registered an inhibition at 10 µM in experiment [5] of 0%. For the same molecule, the Ki in experiment [2] (Table 5, read-out: Ki hCE1) is greater than 100000 nM; in experiment [3] (setting [10]) it was greater than 100000 nM; in experiment [6] it was 320 nM.
Molecule `Cc1cc([N+](=O)[O-])ccc1NC(=O)Nc1ccccc1` [Compound 56, N-(2-methyl-4-nitrophenyl)-N′-phenylurea] returned an inhibition at 10 µM in experiment [5] of 0%. In addition, the Ki in experiment [2] (Table 5, read-out: Ki hCE1) was greater than 100000 nM; in experiment [3] (setting [10]) it was greater than 100000 nM; in experiment [6], 1520 nM.
In experiment [5], `O=C(NC(Cc1ccccc1)C(=O)Oc1ccc2ccccc2c1)c1ccccc1` (stereo not shown) [Compound 57, 2-Benzoylamino-3-phenyl-propionic acid naphthalene-2-yl ester] returned an inhibition at 10 µM of 24.2%. The Ki in experiment [2] (Table 5, read-out: Ki hCE1) is greater than 100000 nM; in experiment [3] (setting [10]), greater than 100000 nM; in experiment [6] it was 61 nM.
